Measured values: PubChem BioAssay (NCI)
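How tested: cells in 96-well plates exposed to compound for 48 hours at five concentrations. The concentration for full growth arrest is given as TGI.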

Columns and labels:
Experiment in all cases: DTP human tumour cell line panel, 48 h
HOP-62 NSCLC = tested on: HOP-62 NSCLC
SW-620 colon = tested on: SW-620 colon
RXF 393 renal = tested on: RXF 393 renal
ACHN renal = tested on: ACHN renal
M14 melanoma = tested on: M14 melanoma
A498 renal = tested on: A498 renal
HCC-2998 colon = tested on: HCC-2998 colon
SF-539 CNS = tested on: SF-539 CNS
SF-268 CNS = tested on: SF-268 CNS
HCT-15 colon = tested on: HCT-15 colon
SK-MEL-28 melanoma = tested on: SK-MEL-28 melanoma
HCT-116 colon = tested on: HCT-116 colon
NCI-H226 lung = tested on: NCI-H226 lung
A549 NSCLC = tested on: A549 NSCLC
NCI-H23 lung = tested on: NCI-H23 lung
SN12C renal = tested on: SN12C renal
OVCAR-4 ovarian = tested on: OVCAR-4 ovarian
RPMI-8226 leukemia = tested on: RPMI-8226 leukemia
BT-549 breast = tested on: BT-549 breast
MDA-MB-231 breast = tested on: MDA-MB-231 breast
OVCAR-3 ovarian = tested on: OVCAR-3 ovarian
K-562 leukemia = tested on: K-562 leukemia
CAKI-1 renal = tested on: CAKI-1 renal
HOP-92 NSCLC = tested on: HOP-92 NSCLC
KM12 colon = tested on: KM12 colon
MOLT-4 leukemia = tested on: MOLT-4 leukemia
SK-OV-3 ovarian = tested on: SK-OV-3 ovarian
DU-145 prostate = tested on: DU-145 prostate
UACC-62 melanoma = tested on: UACC-62 melanoma
SF-295 CNS = tested on: SF-295 CNS
HT29 colon = tested on: HT29 colon
NCI-H522 lung = tested on: NCI-H522 lung
SK-MEL-2 melanoma = tested on: SK-MEL-2 melanoma
SNB-19 CNS = tested on: SNB-19 CNS
CCRF-CEM leukemia = tested on: CCRF-CEM leukemia
NCI-H460 lung = tested on: NCI-H460 lung
MDA-MB-435 = tested on: MDA-MB-435
NCI/ADR-RES ovarian = tested on: NCI/ADR-RES ovarian
T-47D breast = tested on: T-47D breast
IGROV1 ovarian = tested on: IGROV1 ovarian
UO-31 renal = tested on: UO-31 renal
MDA-N = tested on: MDA-N
MCF7 breast = tested on: MCF7 breast
SK-MEL-5 melanoma = tested on: SK-MEL-5 melanoma
OVCAR-5 ovarian = tested on: OVCAR-5 ovarian
SNB-75 CNS = tested on: SNB-75 CNS
MALME-3M melanoma = tested on: MALME-3M melanoma
COLO 205 colon = tested on: COLO 205 colon
OVCAR-8 ovarian = tested on: OVCAR-8 ovarian
TK-10 renal = tested on: TK-10 renal
UACC-257 melanoma = tested on: UACC-257 melanoma
PC-3 prostate = tested on: PC-3 prostate
EKVX NSCLC = tested on: EKVX NSCLC
U251 CNS = tested on: U251 CNS
LOX IMVI melanoma = tested on: LOX IMVI melanoma
786-0 renal = tested on: 786-0 renal
HS 578T breast = tested on: HS 578T breast
HL-60(TB) leukemia = tested on: HL-60(TB) leukemia

## C[C@]12CC[C@H]3[C@@H](CC=C4C[C@@H](O)CC[C@@]43C)[C@@H]1CC[C@@H]2N(CCO)CCO
HOP-62 NSCLC
  TGI: > 100 µM
SW-620 colon
  TGI: > 100 µM
RXF 393 renal
  TGI: > 100 µM
ACHN renal
  TGI: > 100 µM
M14 melanoma
  TGI: > 100 µM
A498 renal
  TGI: 73 µM
HCC-2998 colon
  TGI: 94.9 µM
SF-539 CNS
  TGI: > 100 µM
SF-268 CNS
  TGI: > 100 µM
HCT-15 colon
  TGI: > 100 µM
SK-MEL-28 melanoma
  TGI: > 100 µM
HCT-116 colon
  TGI: > 100 µM
NCI-H226 lung
  TGI: > 100 µM
A549 NSCLC
  TGI: > 100 µM
NCI-H23 lung
  TGI: > 100 µM
SN12C renal
  TGI: > 100 µM
OVCAR-4 ovarian
  TGI: > 100 µM
RPMI-8226 leukemia
  TGI: > 100 µM
BT-549 breast
  TGI: > 100 µM
MDA-MB-231 breast
  TGI: > 100 µM
OVCAR-3 ovarian
  TGI: > 100 µM
K-562 leukemia
  TGI: > 100 µM
CAKI-1 renal
  TGI: > 100 µM
HOP-92 NSCLC
  TGI: > 100 µM
KM12 colon
  TGI: > 100 µM
MOLT-4 leukemia
  TGI: > 100 µM
SK-OV-3 ovarian
  TGI: > 100 µM
DU-145 prostate
  TGI: > 100 µM
UACC-62 melanoma
  TGI: > 100 µM
SF-295 CNS
  TGI: > 100 µM
HT29 colon
  TGI: > 100 µM
NCI-H522 lung
  TGI: > 100 µM
SK-MEL-2 melanoma
  TGI: > 100 µM
SNB-19 CNS
  TGI: > 100 µM
CCRF-CEM leukemia
  TGI: > 100 µM
NCI-H460 lung
  TGI: > 100 µM
MDA-MB-435
  TGI: > 100 µM
NCI/ADR-RES ovarian
  TGI: > 100 µM
T-47D breast
  TGI: > 100 µM
IGROV1 ovarian
  TGI: > 100 µM
UO-31 renal
  TGI: > 100 µM
MDA-N
  TGI: > 100 µM
MCF7 breast
  TGI: > 100 µM
SK-MEL-5 melanoma
  TGI: > 100 µM
OVCAR-5 ovarian
  TGI: > 100 µM
SNB-75 CNS
  TGI: > 100 µM
MALME-3M melanoma
  TGI: > 100 µM
COLO 205 colon
  TGI: > 100 µM
OVCAR-8 ovarian
  TGI: > 100 µM
TK-10 renal
  TGI: > 100 µM
UACC-257 melanoma
  TGI: > 100 µM
PC-3 prostate
  TGI: > 100 µM
EKVX NSCLC
  TGI: 78.1 µM
U251 CNS
  TGI: > 100 µM
LOX IMVI melanoma
  TGI: > 100 µM
786-0 renal
  TGI: 42.7 µM
HS 578T breast
  TGI: > 100 µM

## CC(=S)N=Cc1c(O)cc(C)oc1=O
HOP-62 NSCLC
  TGI: > 100 µM
SW-620 colon
  TGI: > 100 µM
RXF 393 renal
  TGI: > 100 µM
ACHN renal
  TGI: > 100 µM
M14 melanoma
  TGI: > 100 µM
A498 renal
  TGI: > 100 µM
HCC-2998 colon
  TGI: > 100 µM
SF-539 CNS
  TGI: > 100 µM
SF-268 CNS
  TGI: > 100 µM
HCT-15 colon
  TGI: > 100 µM
HCT-116 colon
  TGI: > 100 µM
NCI-H226 lung
  TGI: > 100 µM
A549 NSCLC
  TGI: > 100 µM
HL-60(TB) leukemia
  TGI: > 100 µM
NCI-H23 lung
  TGI: > 100 µM
SN12C renal
  TGI: > 100 µM
OVCAR-4 ovarian
  TGI: > 100 µM
RPMI-8226 leukemia
  TGI: > 100 µM
BT-549 breast
  TGI: > 100 µM
MDA-MB-231 breast
  TGI: > 100 µM
OVCAR-3 ovarian
  TGI: > 100 µM
K-562 leukemia
  TGI: > 100 µM
CAKI-1 renal
  TGI: > 100 µM
HOP-92 NSCLC
  TGI: > 100 µM
KM12 colon
  TGI: > 100 µM
MOLT-4 leukemia
  TGI: > 100 µM
SK-OV-3 ovarian
  TGI: > 100 µM
DU-145 prostate
  TGI: > 100 µM
UACC-62 melanoma
  TGI: > 100 µM
SF-295 CNS
  TGI: > 100 µM
HT29 colon
  TGI: > 100 µM
NCI-H522 lung
  TGI: > 100 µM
SK-MEL-2 melanoma
  TGI: > 100 µM
SNB-19 CNS
  TGI: > 100 µM
CCRF-CEM leukemia
  TGI: > 100 µM
NCI-H460 lung
  TGI: > 100 µM
MDA-MB-435
  TGI: > 100 µM
NCI/ADR-RES ovarian
  TGI: > 100 µM
T-47D breast
  TGI: > 100 µM
IGROV1 ovarian
  TGI: > 100 µM
UO-31 renal
  TGI: > 100 µM
MDA-N
  TGI: > 100 µM
MCF7 breast
  TGI: > 100 µM
SK-MEL-5 melanoma
  TGI: > 100 µM
OVCAR-5 ovarian
  TGI: > 100 µM
SNB-75 CNS
  TGI: > 100 µM
COLO 205 colon
  TGI: > 100 µM
OVCAR-8 ovarian
  TGI: > 100 µM
TK-10 renal
  TGI: > 100 µM
UACC-257 melanoma
  TGI: > 100 µM
PC-3 prostate
  TGI: > 100 µM
EKVX NSCLC
  TGI: > 100 µM
U251 CNS
  TGI: > 100 µM
LOX IMVI melanoma
  TGI: > 100 µM
786-0 renal
  TGI: > 100 µM
HS 578T breast
  TGI: > 100 µM
